# Reference: patent US10703746B2, “Mutant IDH1 inhibitors useful for treating cancer” (THE UNITED STATES OF AMERICA, AS REPRESENTED BY THE …, priority 2014, dated 2020)
# pIC50: −log10 of the molar value.
# Experiments:
# IDH1 R132H = IDH1 R132H (Homo sapiens, UniProt O75874, R132H); test: IDH1 R132H enzymatic assay (NADPH depletion coupled to diaphorase/resazurin); assay type: biochemical
# Protocol: (§1) Assays were conducted in a 1536-well black solid-bottom plate with a final assay volume of 9 μL.
# Specifically, for IDH1 R132H, 3 μL of enzyme (4 mM β-ME, 0.0005 mg/mL IDH1 R132H, 150 mM NaCl, 20 mM Tris pH 7.5, 10 mM MgCl2, 0.05% BSA) were added to the plate, followed by the addition of 23 nL of test compound in DMSO. The plate was lidded and incubated at room temperature for 30 minutes at which time 3 μL of substrate were added (0.016 mM NADPH, 2 mM α-KG, 150 mM NaCl, 20 mM Tris pH 7.5, 10 mM MgCl2, 0.05% BSA). This reaction was incubated at room-temperature for 60 minutes at which time the detection mix was added (0.06 mg/mL diaphorase, 0.036 mM resazurin, 150 mM NaCl, 20 mM Tris pH 7.5, 10 mM MgCl2, 0.05% BSA). […]
# IDH1 R132C = IDH1 R132C (Homo sapiens, UniProt O75874, R132C); test: IDH1 R132C enzymatic assay (NADPH depletion coupled to diaphorase/resazurin); assay type: biochemical
# Protocol: as §1
# For IDH1 R132C, 3 μL of enzyme (0.00032 mg/mL IDH1 […], 10% glycerol, 50 mM potassium phosphate pH 6.5, 5 mM MgCl2, 0.03% BSA) were added to the plate, followed by the addition of 23 nL of test compound in DMSO. The plate was lidded and incubated at room temperature for 30 minutes at which time 3 μL of substrate were added (0.012 mM NADPH, 0.6 mM α-KG, 10% glycerol, 50 mM potassium phosphate pH 6.5, 5 mM MgCl2, 0.03% BSA). […]
# [1] = IDH1 R132H enzymatic inhibition, IC50 class
# [2] = IDH1 R132C enzymatic inhibition, IC50 class
# [3] = enzymatic inhibition, IDH1 R132H
# [4] = enzymatic inhibition, IDH1 R132C
# IDH1 R132C, sequence (O75874 whole entry R132C): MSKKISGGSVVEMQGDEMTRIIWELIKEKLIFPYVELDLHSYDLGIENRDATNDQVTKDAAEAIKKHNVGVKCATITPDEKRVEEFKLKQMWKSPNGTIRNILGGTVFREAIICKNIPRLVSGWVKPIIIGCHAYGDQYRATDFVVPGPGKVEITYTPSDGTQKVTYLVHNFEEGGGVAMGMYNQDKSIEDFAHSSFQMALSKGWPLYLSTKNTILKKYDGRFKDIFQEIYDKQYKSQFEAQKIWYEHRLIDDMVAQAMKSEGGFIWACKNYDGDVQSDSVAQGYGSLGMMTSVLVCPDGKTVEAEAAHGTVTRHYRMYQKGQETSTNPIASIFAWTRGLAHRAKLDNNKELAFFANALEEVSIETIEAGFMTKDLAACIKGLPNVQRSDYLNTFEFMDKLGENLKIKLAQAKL
# IDH1 R132H, sequence (O75874 whole entry R132H): as the sequence (O75874 whole entry R132C) above, with C132H counted along it
SMILES,pIC50 (IDH1 R132H; [1]),pIC50 (IDH1 R132C; [2]),pIC50 (IDH1 R132H; [3]),pIC50 (IDH1 R132C; [4])
CCc1cccc(CC)c1-n1c(COC)c(C(=O)N2CCNCC2)cc(-c2nc(-c3ccc(Cl)cc3)cs2)c1=O [Compound 275],> 6.52,> 6.52,,
CCc1cccc(CC)c1-n1c(CC)c(C(=O)NC)cc(-c2nc(-c3ccc(Cl)cc3)cs2)c1=O [Compound 293],6.00 to 6.52,6.00 to 6.52,,
CCc1ccc(Cl)c(CC)c1-n1c(C=C(C)C)c(C(=O)N2CCNCC2)cc(-c2nc(-c3ccc(Cl)cc3)cs2)c1=O [Compound 666],> 6.52,> 6.52,,
CCc1cccc(CC)c1-n1c(C)c(C(=O)N2CCNC(CO)C2)cc(-c2nc(-c3ccc(Cl)cc3)cs2)c1=O (stereo not shown) [Compound 106],> 6.52,6.00 to 6.52,,
CCc1cccc(CC)c1-n1c(C=C(C)C)c(C(=O)N2CCNC(C)C2)cc(-c2nc(-c3ccc(Cl)cc3)cs2)c1=O (stereo not shown) [Compound 370],> 6.52,> 6.52,,
"O=c1[nH]cccc1-c1nc(-c2ccc(Cl)cc2)cs1 [Compound 79, 3-(4-(4-chlorophenyl)thiazol-2-yl)pyridin-2(1H)-one]",< 4.70,< 4.70,,
COc1ccncc1-n1c2c(cc(-c3nc(-c4ccc(Cl)cc4)cs3)c1=O)C(=O)CC(C)(C)C2 [Compound 436],,,< 4.70,4.70 to 5.30
COc1ccc(-n2cccc(-c3nc(-c4ccc(Cl)cc4)cs3)c2=O)c(OC)c1 [Compound 165],< 4.70,< 4.70,,
CCc1ncc(OC)cc1-n1c(C=C(C)C)c(C(=O)N2CCNCC2)cc(-c2nc(-c3ccc(C(F)(F)F)nc3)cs2)c1=O [Compound 334],6.00 to 6.52,5.30 to 6.00,,
COc1cccc(OC)c1-n1c(C=C(C)C)c(C(=O)N2CCNCC2)cc(-c2nc(-c3ccc(Cl)cc3)cs2)c1=O [Compound 467],,,> 6.52,> 6.52
Cc1ccc(CN2CCN(C)CC2)cc1-n1c2c(cc(-c3nc(-c4ccc(Cl)cc4)cs3)c1=O)C(=O)CC(C)(C)C2 [Compound 460],,,4.70 to 5.30,4.70 to 5.30
CCc1cccc(CC)c1-n1c(C)c(C(=O)N2CCOCC2)cc(-c2nc(-c3ccc(Cl)cc3)cs2)c1=O [Compound 110],5.30 to 6.00,5.30 to 6.00,,
CCc1cccc(CC)c1-n1c(CC(C)C)c(C(=O)N2CCNCC2)cc(-c2nc(-c3ccc(N4CCOCC4)cc3)c(C)s2)c1=O [Compound 211],4.70 to 5.30,4.70 to 5.30,,
CCc1cccc(CC)c1-n1c(C(C)C)c(C(=O)N2CCN[C@H](C(=O)OC)C2)cc(-c2nc(-c3ccc(Cl)cc3)cs2)c1=O [Compound 247],4.70 to 5.30,5.30 to 6.00,,
CCc1cccc(CC)c1-n1c(C)c(C(=O)NC2CCNC2)cc(-c2nc(-c3ccc(Cl)cc3)cs2)c1=O (stereo not shown) [Compound 99],5.30 to 6.00,6.00 to 6.52,,
COc1ccc(OC)c(-n2c(=O)c(-c3nc(-c4ccc(Cl)cc4)cs3)cc3c(O)cncc32)c1 [Compound 190],< 4.70,< 4.70,,
CCOc1ccc(-c2nc(-c3cc(C(=O)N4CCNCC4)c(CC(C)C)n(-c4c(CC)cccc4CC)c3=O)sc2C)cc1 [Compound 285],> 6.52,> 6.52,,
Cc1[nH]c(=O)c(-c2nc(-c3ccc(Cl)cc3)cs2)cc1C(=O)N1CCNCC1 [Compound 595],,,< 4.70,< 4.70
COc1ccc(OC)c(-n2c(=O)c(-c3nc(-c4ccc(Cl)cc4)cs3)cc3c(O)cccc32)c1 [Compound 68],< 4.70,< 4.70,,
CCc1cccc(CC)c1-n1c(CC(C)C)c(C(=O)NC2CCCCC2O)cc(-c2nc(-c3ccc(Cl)cc3)cs2)c1=O (stereo not shown) [Compound 159],5.30 to 6.00,5.30 to 6.00,,
CCc1cccc(CC)c1-n1c(CC(C)C)c(C(=O)N2CCNCC2C(=O)O)cc(-c2nc(-c3ccc(Cl)cc3)cs2)c1=O (stereo not shown) [Compound 75],5.30 to 6.00,6.00 to 6.52,,
O=C1CCCc2c1cc(-c1nc(-c3ccc(Cl)cc3)cs1)c(=O)n2-c1ccccc1CCO [Compound 590],,,4.70 to 5.30,4.70 to 5.30
CCc1cccc(CC)c1-n1c(C=C(C)C)c(C(=O)N2CCNC(=O)C2(C)C)cc(-c2nc(-c3ccc(Cl)cc3)cs2)c1=O [Compound 650],> 6.52,> 6.52,,
